Source: ChEMBL document CHEMBL1201862, “PubChem BioAssay data set” (2004)
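Dose response: 5 concentrations. Exposure: 48 h. Format: 96-well plates. Endpoint: linear interpolation; highest concentration if not reached. GI50 = concentration required for 50% inhibition of growth.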 Activity calls are given as the source filed them. Rule as the data show it: active = GI50 up to about 1.1 µM and inactive = higher.

Legend:
Assay in all cases: NCI tumour cell line growth inhibition, 48 h
[1] = tested on: HOP-92
[2] = tested on: TK-10
[3] = tested on: OVCAR-4
[4] = tested on: ACHN
[5] = tested on: RPMI-8226
[6] = tested on: A549
[7] = tested on: NCI-H226
[8] = tested on: PC-3
[9] = tested on: IGROV-1
[10] = tested on: HCT-116
[11] = tested on: NCI-H23
[12] = tested on: SW-620
[13] = tested on: OVCAR-5
[14] = tested on: KM12
[15] = tested on: MDA-MB-435
[16] = tested on: HT-29
[17] = tested on: SK-MEL-28
[18] = tested on: MCF7
[19] = tested on: MDA-MB-231
[20] = tested on: K562
[21] = tested on: NCI-H460
[22] = tested on: UACC-62
[23] = tested on: EKVX
[24] = tested on: HOP-62
[25] = tested on: RXF 393
[26] = tested on: MOLT-4
[27] = tested on: SF-268
[28] = tested on: NCI/ADR-RES
[29] = tested on: DU-145
[30] = tested on: SNB-75
[31] = tested on: A498
[32] = tested on: SNB-19
[33] = tested on: COLO 205
[34] = tested on: Malme-3M
[35] = tested on: CAKI-1
[36] = tested on: SF-295
[37] = tested on: OVCAR-3
[38] = tested on: HCC 2998
[39] = tested on: NCI-H522
[40] = tested on: UO-31
[41] = tested on: 786-0
[42] = tested on: U-251
[43] = tested on: SK-MEL-2
[44] = tested on: HL-60
[45] = tested on: SK-OV-3
[46] = tested on: LOX IMVI
[47] = tested on: SR
[48] = tested on: Hs-578T
[49] = tested on: HCT-15
[50] = tested on: SK-MEL-5
[51] = tested on: M14
[52] = tested on: SF-539
[53] = tested on: OVCAR-8
[54] = tested on: UACC-257
[55] = tested on: CCRF-CEM
[56] = tested on: MDA-N
[57] = tested on: SN12C

In the case of Cc1ccc(S(=O)(=O)NC(=O)NCCc2ccc(O)c(O)c2)cc1, the GI50 [1] is reported as > 100 µM (inactive), the GI50 [2] is reported as > 100 µM (inactive) and the GI50 [3] is reported as > 100 µM (inactive). For the same molecule, the GI50 [4] was > 100 µM (inactive), the GI50 [5] was 38 µM (inactive) and the GI50 [6] was > 100 µM (inactive). The GI50 [7] was > 100 µM (inactive), the GI50 [8] was > 100 µM (inactive) and the GI50 [9] was > 100 µM (inactive). The GI50 [10] was > 100 µM (inactive), the GI50 [11] was > 100 µM (inactive) and the GI50 [12] was > 100 µM (inactive). For the same molecule, the GI50 [13] was > 100 µM (inactive), the GI50 [14] was > 100 µM (inactive) and the GI50 [15] was 51.3 µM (inactive). For the same molecule, the GI50 [16] was > 100 µM (inactive), the GI50 [17] was > 100 µM (inactive) and the GI50 [18] was 61.8 µM (inactive). The GI50 [19] was > 100 µM (inactive), the GI50 [20] was > 100 µM (inactive) and the GI50 [21] was > 100 µM (inactive). For the same molecule, the GI50 [22] was > 100 µM (inactive), the GI50 [23] was > 100 µM (inactive) and the GI50 [24] was > 100 µM (inactive). For the same molecule, the GI50 [25] was > 100 µM (inactive), the GI50 [26] was 58.2 µM (inactive) and the GI50 [27] was > 100 µM (inactive). The GI50 [28] was > 100 µM (inactive), the GI50 [29] was > 100 µM (inactive) and the GI50 [30] was > 100 µM (inactive). For the same molecule, the GI50 [31] was > 100 µM (inactive), the GI50 [32] was > 100 µM (inactive) and the GI50 [33] was > 100 µM (inactive). The GI50 [34] was > 100 µM (inactive), the GI50 [35] was > 100 µM (inactive) and the GI50 [36] was > 100 µM (inactive). The GI50 [37] was > 100 µM (inactive), the GI50 [38] was > 100 µM (inactive) and the GI50 [39] was > 100 µM (inactive). For the same molecule, the GI50 [40] was > 100 µM (inactive), the GI50 [41] was > 100 µM (inactive) and the GI50 [42] was > 100 µM (inactive). The GI50 [43] was > 100 µM (inactive), the GI50 [44] was 56.5 µM (inactive) and the GI50 [45] was > 100 µM (inactive). The GI50 [46] was 53.6 µM (inactive), the GI50 [47] was > 100 µM (inactive) and the GI50 [48] was > 100 µM (inactive). For the same molecule, the GI50 [49] was greater than 100 µM, the GI50 [50] was 37.2 µM (inactive) and the GI50 [51] was > 100 µM (inactive). The GI50 [52] was > 100 µM (inactive) and the GI50 [53] was 97.3 µM (inactive).
For N#C/C(=C/n1c(=S)[nH]c2ccc([N+](=O)[O-])cc21)C(N)=O, the GI50 [1] was > 100 µM (inactive), the GI50 [2] was > 100 µM (inactive) and the GI50 [3] was > 100 µM (inactive). For the same molecule, the GI50 [54] was > 100 µM (inactive), the GI50 [4] was > 100 µM (inactive) and the GI50 [5] was > 100 µM (inactive). The GI50 [6] was > 100 µM (inactive), the GI50 [7] was > 100 µM (inactive) and the GI50 [8] was > 100 µM (inactive). The GI50 [9] was > 100 µM (inactive), the GI50 [10] was > 100 µM (inactive) and the GI50 [11] was > 100 µM (inactive). The GI50 [12] was > 100 µM (inactive), the GI50 [13] was > 100 µM (inactive) and the GI50 [14] was > 100 µM (inactive). For the same molecule, the GI50 [15] was > 100 µM (inactive), the GI50 [16] was > 100 µM (inactive) and the GI50 [17] was > 100 µM (inactive). For the same molecule, the GI50 [18] was > 100 µM (inactive), the GI50 [19] was > 100 µM (inactive) and the GI50 [55] was > 100 µM (inactive). The GI50 [21] was > 100 µM (inactive), the GI50 [22] was > 100 µM (inactive) and the GI50 [23] was 22.2 µM (inactive). For the same molecule, the GI50 [24] was > 100 µM (inactive), the GI50 [25] was > 100 µM (inactive) and the GI50 [26] was > 100 µM (inactive). For the same molecule, the GI50 [56] was > 100 µM (inactive), the GI50 [27] was > 100 µM (inactive) and the GI50 [28] was > 100 µM (inactive). The GI50 [29] was > 100 µM (inactive), the GI50 [30] was 19.7 µM (inactive) and the GI50 [32] was > 100 µM (inactive). For the same molecule, the GI50 [33] was > 100 µM (inactive), the GI50 [34] was > 100 µM (inactive) and the GI50 [35] was > 100 µM (inactive). The GI50 [36] was > 100 µM (inactive), the GI50 [37] was > 100 µM (inactive) and the GI50 [57] was > 100 µM (inactive). The GI50 [40] was > 100 µM (inactive), the GI50 [41] was > 100 µM (inactive) and the GI50 [42] was > 100 µM (inactive). The GI50 [43] was > 100 µM (inactive), the GI50 [44] was 9.33 µM (inactive) and the GI50 [45] was > 100 µM (inactive). The GI50 [46] was > 100 µM (inactive), the GI50 [47] was > 100 µM (inactive) and the GI50 [48] was > 100 µM (inactive). For the same molecule, the GI50 [49] was greater than 100 µM, the GI50 [50] was > 100 µM (inactive) and the GI50 [51] was > 100 µM (inactive). For the same molecule, the GI50 [52] was > 100 µM (inactive) and the GI50 [53] was > 100 µM (inactive).
For O=c1ccn([C@@H]2O[C@H](CO)[C@@H](O)[C@H]2F)c(=O)[nH]1, the GI50 [2] was > 100 µM (inactive), the GI50 [3] was > 100 µM (inactive) and the GI50 [54] was > 100 µM (inactive). The GI50 [4] was > 100 µM (inactive), the GI50 [6] was > 100 µM (inactive) and the GI50 [7] was > 100 µM (inactive). For the same molecule, the GI50 [9] was > 100 µM (inactive), the GI50 [10] was > 99.8 µM (inactive) and the GI50 [11] was > 100 µM (inactive). For the same molecule, the GI50 [13] was > 100 µM (inactive), the GI50 [15] was > 100 µM (inactive) and the GI50 [16] was > 100 µM (inactive). For the same molecule, the GI50 [17] was > 100 µM (inactive), the GI50 [19] was > 100 µM (inactive) and the GI50 [21] was 88.7 µM (inactive). The GI50 [24] was > 100 µM (inactive), the GI50 [56] was > 100 µM (inactive) and the GI50 [27] was > 100 µM (inactive). For the same molecule, the GI50 [28] was > 100 µM (inactive), the GI50 [29] was > 100 µM (inactive) and the GI50 [30] was > 100 µM (inactive). For the same molecule, the GI50 [31] was > 100 µM (inactive), the GI50 [32] was > 100 µM (inactive) and the GI50 [33] was > 100 µM (inactive). The GI50 [36] was > 100 µM (inactive), the GI50 [38] was > 100 µM (inactive) and the GI50 [57] was > 100 µM (inactive). For the same molecule, the GI50 [40] was > 100 µM (inactive), the GI50 [42] was 95.1 µM (inactive) and the GI50 [43] was > 100 µM (inactive). For the same molecule, the GI50 [45] was > 100 µM (inactive), the GI50 [48] was > 100 µM (inactive) and the GI50 [49] was greater than 99.5 µM. For the same molecule, the GI50 [51] was > 100 µM (inactive), the GI50 [52] was > 100 µM (inactive) and the GI50 [53] was > 100 µM (inactive).
